Data taken from US11685746B2, “Heteroaryl compounds for treating Huntington's disease” (PTC THERAPEUTICS, INC., priority 2018, dated 2023).

system: Endogenous Huntingtin Protein; test: Endogenous Huntingtin Protein Assay (MSD plates, MW1 or MAB2166 capture antibody); type: cell-based; conditions: Table 1
Description: Endogenous Huntingtin Protein Assay
Meso Scale Discovery (MSD) 96-well or 384-well plates were coated overnight at 4° C. with MW1 (expanded polyglutamine) or MAB2166 monoclonal antibody (for capture) at a concentration of 1 μg/mL in PBS (30 μL per well). Plates were then washed three times with 300 μL wash buffer (0.05% Tween-20 in PBS) and blocked (100 μL blocking buffer; 5% BSA in PBS) for 4-5 hours at room temperature with rotational shaking and then washed three times with wash buffer.
Samples (25 μL) were transferred to the antibody-coated MSD plate and incubated overnight at 4° C. After removal of the lysates, the plate was washed three times with wash buffer, and 25 μL of #5656S (Cell signaling; rabbit monoclonal) secondary antibody (diluted to 0.25 μg/mL in 0.05% Tween-20 in blocking buffer) was added to each well and incubated with shaking for 1 Hour at room temperature. Following incubation with the secondary antibody, the wells were rinsed with wash buffer after which 25 μL of goat anti-rabbit SULFO TAG secondary detection antibody (required aspect of the MSD system) (diluted to 0.25 μg/mL in 0.05% Tween-20 in blocking buffer) was added to each well and incubated with shaking for 1 hour at room temperature. After rinsing three times with wash buffer, 150 μL of read buffer T with surfactant (MSD) were added to each empty well, and the plate was imaged on a SI 6000 imager (MSD) according to manufacturers' instructions provided for 96- or 384-well plates.

SMILES | IC50 [nM]
CN1C2CCC1CC(Nc1nn3cc(-c4ccc(-c5cn[nH]c5)cc4O)nc3s1)C2 (stereo not drawn) [Compound 19, 2-(2-{[(3-exo)-8-methyl-8-azabicyclo[3.2.1]oct-3-yl]amino]imidazo[2,1-b][1,3,4]thiadiazol-6-yl)-5-(1H-pyrazol-4-yl)phenol] | 100 to 500
Cc1n[nH]cc1-c1cnc(-c2nc3sc(N(C)C4CCNCC4)nc3s2)c(O)c1 [Compound 219, 2-{5-[methyl(piperidin-4-yl)amino][1,3]thiazolo[5,4-d][1,3]thiazol-2-yl}-5-(3-methyl-1H-pyrazol-4-yl)pyridin-3-ol] | ≤ 100
Cc1ncc(-c2cnc(-c3nc4sc(N(C)C5CCNCC5)nc4s3)c(O)c2)o1 [Compound 223, 5-(2-methyl-1,3-oxazol-5-yl)-2-{5-[methyl(piperidin-4-yl)amino][1,3]thiazolo[5,4-d][1,3]thiazol-2-yl}pyridin-3-ol] | ≤ 100
Cc1cn2nc(-c3cn4cc(C5CCNCC5)nc4s3)cc(C)c2n1 [Compound 8, 2,8-dimethyl-6-[6-(piperidin-4-yl)imidazo[2,1-b][1,3]thiazol-2-yl]imidazo[1,2-b]pyridazine] | ≤ 100
CN(c1nc2sc(-c3ncc(-c4cn[nH]c4)cc3O)nc2s1)C1CCN2CCCC2C1 (stereo not shown) [Compound 145, 2-{5-[methyl(octahydroindolizin-7-yl)amino][1,3]thiazolo[5,4-d][1,3]thiazol-2-yl}-5-(1H-pyrazol-4-yl)pyridin-3-ol] | ≤ 100
CC1(C)CC(Oc2nc3sc(-n4ccc(-c5cn[nH]c5)cc4=O)nc3s2)CC(C)(C)N1 [Compound 156, 4-(1H-pyrazol-4-yl)-1-{5-[(2,2,6,6-tetramethylpiperidin-4-yl)oxy][1,3]thiazolo[5,4-d][1,3]thiazol-2-yl}pyridin-2(1H)-one] | ≤ 100
CC1(C)CC(Oc2nc3sc(-c4cnc(-c5cn[nH]c5)cn4)nc3s2)CC(C)(C)N1 [Compound 143, 2-[5-(1H-pyrazol-4-yl)pyrazin-2-yl]-5-[(2,2,6,6-tetramethylpiperidin-4-yl)oxy][1,3]thiazolo[5,4-d][1,3]thiazole] | ≤ 100
CN(c1nc2sc(-c3cnc(-n4cncn4)cn3)nc2s1)[C@H]1C[C@]2(C)CC[C@](C)(C1)N2 [Compound 70, N-[(1R,3s,5S)-1,5-dimethyl-8-azabicyclo[3.2.1]octan-3-yl]-N-methyl-5-[5-(1H-1,2,4-triazol-1-yl)pyrazin-2-yl][1,3]thiazolo[5,4-d][1,3]thiazol-2-amine] | ≤ 100
CC1CC(N(C)c2nc3sc(-c4ncc(Br)c5cc[nH]c45)nc3s2)CCN1C (stereo not shown) [Compound 124, 5-(4-bromo-1H-pyrrolo[2,3-c]pyridin-7-yl)-N-(1,2-dimethylpiperidin-4-yl)-N-methyl[1,3]thiazolo[5,4-d][1,3]thiazol-2-amine] | 100 to 500
CCN(c1nc2sc(-c3ncc(-c4cn[nH]c4)cc3O)nc2s1)C1CCNCC1 [Compound 61, 2-{5-[ethyl(piperidin-4-yl)amino][1,3]thiazolo[5,4-d][1,3]thiazol-2-yl}-5-(1H-pyrazol-4-yl)pyridin-3-ol] | ≤ 100
CC1CC(N(C)c2nc3sc(-c4ccc(-c5cn[nH]c5)c5cn[nH]c45)nc3s2)CCN1C (stereo not shown) [Compound 108, N-(1,2-dimethylpiperidin-4-yl)-N-methyl-5-[4-(1H-pyrazol-4-yl)-1H-indazol-7-yl][1,3]thiazolo[5,4-d][1,3]thiazol-2-amine] | ≤ 100
CN(c1nc2sc(-c3ccc(-c4ccnc(O)c4)cc3O)nc2s1)C1CCNCC1 [Compound 35, 4-(3-hydroxy-4-{5-[methyl(piperidin-4-yl)amino][1,3]thiazolo[5,4-d][1,3]thiazol-2-yl}phenyl)pyridin-2-ol] | 3000 to 9000
Cc1cnn(-c2cnc(-c3nc4sc(N(C)[C@@H]5C[C@H]6CC[C@@H](C5)N6)nc4s3)c(O)c2)c1 [Compound 190, 2-(5-{[(1R,3s,5S)-8-azabicyclo[3.2.1]octan-3-yl](methyl)amino}[1,3]thiazolo[5,4-d][1,3]thiazol-2-yl)-5-(4-methyl-1H-pyrazol-1-yl)pyridin-3-ol] | ≤ 100
